Here are results for one molecule from paper PMC10208570, “Peptidomimetic antibiotics disrupt the lipopolysaccharide transport bridge of drug-resistant Enterobacteriaceae” (Science Advances, 2023).

The target of assay [1] is T1, LptAm (Escherichia coli, UniProt P0ADV1).
T1 construct: His6-GB1 (N, cleaved yes); made in house; host or cells: E. coli BL21 (DE3)
Kind of assay: FP direct binding assay. More on the design: species or system E. coli.
Experimental: (§6) Anisotropy for the blank, the fluorescently labeled peptide only (6-FL only), was measured and subtracted from r to yield r′. The r′ data were normalized and fit to the One site − Total model on GraphPad Prism 9. A nonspecific binding factor (NS) was determined using a linear regression model (y = NS ∗ X + b) at the highest concentrations and incorporated into the fit. The dissociation constants (Kd) were calculated using the total protein concentrations using the equation y=Bmax∗X/Kd+X

Assay [2] deals with T2, LptAmD33A (Escherichia coli, UniProt P0ADV1, D33A).
T2 construct: His6-GB1 (N, cleaved yes); made in house; host or cells: E. coli BL21 (DE3)
Nature of the assay: FP direct binding assay. Further details: species or system E. coli.
Experimental: as §6

Assay [3] addresses T3, LptAmQ62L (Escherichia coli, UniProt P0ADV1, Q62L).
T3 construct: His6-GB1 (N, cleaved yes); made in house; host or cells: E. coli BL21 (DE3)
Kind of assay: FP direct binding assay. More on the design: species or system E. coli.
Experimental: as §6

The target in assay [4] is T4, LptAmQ62L, D33A (Escherichia coli, UniProt P0ADV1, D33A/Q62L).
T4 construct: His6-GB1 (N, cleaved yes); made in house; host or cells: E. coli BL21 (DE3)
Kind of assay: FP direct binding assay. Further details: species or system E. coli.
Experimental: as §6

Assay [5] deals with T5, mLptA (Escherichia coli, UniProt P0ADV1, E39V/M47A/R76A).
T5 construct: the LptA25–185 mutant E39V M47A R76A was selected as the best candidate; His6-GB1 (N, cleaved yes); made in house; host or cells: E. coli BL21 (DE3)
Kind of assay: biochemical. It counts as binding, E. coli. On the procedure:
(§1) Protein stocks were purified and concentrated in buffer 1 [50 mM Na-Pi (pH 7) and 150 mM NaCl] and, if necessary, diluted to desired concentrations using buffer 2 [50 mM Na-Pi (pH 7), 150 mM NaCl, and 0.05% Tween 20]. Peptide stocks and fluorescently labeled peptide stocks were made in buffer 2. Every serial dilution consisted of 24 wells, the first well with the highest concentrate and the last well (well 24) with the lowest. First, 50 μl of buffer 2 was added to the wells 2 to 24 of each serial dilution. Then, 100 μl of concentrated unlabeled peptide/protein in their respective buffers was added to the first well. […] Anisotropy was measured using the Tecan Safire2 plate reader using a 10-nm bandwidth and setting the excitation and emission wavelengths to 635 and 670 nm, respectively. The G-factor (G) was also determined empirically as 1.094 for the instrument and included in all the anisotropy calculations.
(§2) For direct binding assays, fluorescence anisotropy (r) was calculated using the parallel and perpendicular polarized intensities (I) by the equation r=I∥−I⊥∗G/I∥+2I⊥∗G
(§3) Anisotropy for the blank, the fluorescently labeled peptide only (6-FL only), was measured and subtracted from r to yield r′. […] A nonspecific binding factor (NS) was determined using a linear regression model (y = NS ∗ X + b) at the highest concentrations and incorporated into the fit.

For assay [6], the target named is T6, mLptAQ62L (Escherichia coli, UniProt P0ADV1, E39V/M47A/Q62L/R76A).
T6 construct: the LptA25–185 mutant E39V M47A R76A was selected as the best candidate; His6-GB1 (N, cleaved yes); made in house; host or cells: E. coli BL21 (DE3)
Kind of assay: biochemical. The format is binding, E. coli. As for the experimental part: as §1, §2, §3

Assay [7] deals with LptAmQ62L. The following applies: read-out: Kd ± 95CI, K. pneumoniae LptAmQ62L; FP direct binding of 6-FL; triplicates; ± 95% CI of fit. On the procedure: (§4) Protein stocks were purified and concentrated in buffer 1 [50 mM Na-Pi (pH 7) and 150 mM NaCl] and, if necessary, diluted to desired concentrations using buffer 2 [50 mM Na-Pi (pH 7), 150 mM NaCl, and 0.05% Tween 20]. Peptide stocks and fluorescently labeled peptide stocks were made in buffer 2. Every serial dilution consisted of 24 wells, the first well with the highest concentrate and the last well (well 24) with the lowest. First, 50 μl of buffer 2 was added to the wells 2 to 24 of each serial dilution. Then, 100 μl of concentrated unlabeled peptide/protein in their respective buffers was added to the first well. Fifty microliters were taken from the first well and added to the second well for a 1:1 serial dilution and continued for the 24 wells. […] Plates were covered with adhesive seals and left to incubate overnight at 4°C before FP measurements the next day. Anisotropy was measured using the Tecan Safire2 plate reader using a 10-nm bandwidth and setting the excitation and emission wavelengths to 635 and 670 nm, respectively. The G-factor (G) was also determined empirically as 1.094 for the instrument and included in all the anisotropy calculations.
as §2
(§5) Anisotropy for the blank, the fluorescently labeled peptide only (6-FL only), was measured and subtracted from r to yield r′. The r′ data were normalized and fit to the One site − Total model on GraphPad Prism 9. A nonspecific binding factor (NS) was determined using a linear regression model (y = NS ∗ X + b) at the highest concentrations and incorporated into the fit.

Assay [8] addresses LptAm. The settings on record: read-out: Kd ± 95CI, K. pneumoniae LptAm; FP direct binding of 6-FL; triplicates; ± 95% CI of fit. On the procedure: as §4, §2, §5
Assay [9] concerns the target mLptA. The settings on record: read-out: Kd ± 95CI, K. pneumoniae mLptA; FP direct binding of 6-FL; triplicates; ± 95% CI of fit. On the procedure:
as §4, §2, §5

The structures appear in SMILES notation. Where a SMILES comes first, the peptide text is derived from it. Bridges are numbered along the chain shown (N, C = ends). [ ]: non-standard residue; d: D form. The star is where a group is joined. X1 = CC1(CCCCS(=O)(=O)O)C(/C=C/C=C/C=C2/N(CCCS(=O)(=O)O)c3ccc(S(=O)(=O)O)cc3C2(C)C)=[N+](CCCCCC(=O)NCc2cn(CCOCCOCCOCCOCCC(=O)*)nn2)c2ccc(S(=O)(=O)[O-])cc21; Hyp = O=C(O)[C@@H]1C[C@@H](O)CN1; Pen = CC(C)(S)[C@H](N)C(=O)O; dDab = NCC[C@@H](N)C(=O)O; Dab = NCC[C@H](N)C(=O)O

T5 sequence (P0ADV1 25-185 E39V/M47A/R76A): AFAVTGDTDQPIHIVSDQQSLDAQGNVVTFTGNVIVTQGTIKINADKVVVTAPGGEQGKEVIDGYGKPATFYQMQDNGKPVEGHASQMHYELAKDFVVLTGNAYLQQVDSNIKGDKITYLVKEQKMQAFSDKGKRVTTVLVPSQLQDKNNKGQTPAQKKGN
T6 sequence (P0ADV1 25-185 E39V/M47A/Q62L/R76A): as the sequence (P0ADV1 25-185 E39V/M47A/R76A) above, with Q38L counted along it
T3 sequence (P0ADV1 28-159 Q62L): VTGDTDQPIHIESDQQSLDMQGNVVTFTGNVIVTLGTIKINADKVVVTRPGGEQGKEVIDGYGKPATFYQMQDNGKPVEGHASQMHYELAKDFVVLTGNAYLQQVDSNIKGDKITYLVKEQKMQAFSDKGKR
T2 sequence (P0ADV1 28-159 D33A): as the sequence (P0ADV1 28-159 Q62L) above, with D6A, L35Q counted along it
T4 sequence (P0ADV1 28-159 D33A/Q62L): as the sequence (P0ADV1 28-159 Q62L) above, with D6A counted along it
T1 sequence (P0ADV1 28-159): as the sequence (P0ADV1 28-159 Q62L) above, with L35Q counted along it

Regarding `CC[C@H](C)[C@H](NC(=O)[C@@H]1C[C@@H](O)CN1C(=O)[C@@H](N)C(C)C)C(=O)N[C@H](C(=O)N[C@@H](Cc1ccc(O)cc1)C(=O)N[C@@H]1C(=O)N[C@@H](CC(N)=O)C(=O)N[C@@H](CCCNC(=N)N)C(=O)N[C@@H](CCN)C(=O)N[C@@H](CCCCNC(=O)CCOCCOCCOCCOCCn2cc(CNC(=O)CCCCC[N+]3=C(/C=C/C=C/C=C4/N(CCCS(=O)(=O)O)c5ccc(S(=O)(=O)O)cc5C4(C)C)C(C)(CCCCS(=O)(=O)O)c4cc(S(=O)(=O)[O-])ccc43)nn2)C(=O)N[C@H](CCN)C(=O)N[C@@H](CCCCN)C(=O)N[C@H](C(=O)N[C@@H](CCN)C(=O)N[C@@H](CCCNC(=N)N)C(=O)N[C@@H](Cc2ccc(O)cc2)C(=O)O)CSSC1(C)C)[C@@H](C)O` (stereo partly drawn) [6-FL] (H-V[Hyp]ITY[Pen]NR[Dab]K(X1)[dDab]KC[Dab]RY-OH; disulfide 6-13), the Kd stood at 6.9 ± 1.7 nM in assay [1]; 13.8 ± 8.2 nM in [2]; 73.3 ± 21.3 nM in assay [3]; 82.4 ± 10.3 nM in assay [4]; 968 ± 191 nM in [5]; 8140 ± 1180 nM in assay [6]. The Kd in assay [7] was found to be 242 ± 45.1 nM; in assay [8], 3.7 ± 0.9 nM; in assay [9], 453 ± 29.3 nM.
